Data from US20140155415A1, “BENZ[…] BENZODIOXINE COMPOUNDS THAT INTERACT WITH G[…] FOR THE TREATMENT OF DIABETES” (priority 2011, published 2014).

What was measured:
[1] = target: T1, GK-GKRP (interaction between glucokinase and glucokinase regulatory protein) (Homo sapiens, UniProt Q14397); test: GK-GKRP Binding Assay (Binding), AlphaScreen; settings: avi-tagged GKRP, GK-fluorescein, AlphaScreen beads, 1 μM sorbitol-6-phosphate; read-out: GK-GKRP IC50 (Binding)
T1 construct: made in house; host or cells: GKRP: baculovirus system
T1 sequence (Q14397 1-625): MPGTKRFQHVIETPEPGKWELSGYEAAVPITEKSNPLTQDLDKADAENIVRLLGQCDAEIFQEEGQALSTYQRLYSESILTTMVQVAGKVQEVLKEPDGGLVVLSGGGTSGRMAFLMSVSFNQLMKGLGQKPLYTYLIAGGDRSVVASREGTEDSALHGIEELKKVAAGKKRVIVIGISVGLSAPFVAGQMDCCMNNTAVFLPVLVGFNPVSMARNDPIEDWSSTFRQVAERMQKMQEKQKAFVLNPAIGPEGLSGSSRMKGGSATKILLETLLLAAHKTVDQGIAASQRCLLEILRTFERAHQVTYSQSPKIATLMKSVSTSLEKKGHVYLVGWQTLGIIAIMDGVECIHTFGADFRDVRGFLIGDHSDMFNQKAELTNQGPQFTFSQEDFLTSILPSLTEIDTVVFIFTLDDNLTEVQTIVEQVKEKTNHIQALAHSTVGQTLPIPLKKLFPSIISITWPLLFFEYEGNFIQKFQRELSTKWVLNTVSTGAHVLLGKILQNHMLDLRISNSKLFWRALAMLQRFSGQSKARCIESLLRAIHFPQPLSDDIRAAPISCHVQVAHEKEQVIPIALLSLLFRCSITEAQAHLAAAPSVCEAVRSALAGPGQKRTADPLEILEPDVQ
Outline: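 Biotinylated, C-terminally avi-tagged human GKRP was preincubated 20 min at room temperature with compound, then fluorescein-labelled human hepatic GK was added (6 nM in the added buffer). The mix was incubated 2 h at room temperature in the dark before AlphaScreen reading. Buffer was 20 mM Tris pH 7.5, 0.05% BSA, 1 mM DTT, 1 μM sorbitol-6-phosphate.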

[2] = target: T2, GK-GKRP (glucokinase / glucokinase regulatory protein) (Homo sapiens, UniProt Q14397); test: GKRP LC MS/MS Biochemical Assay (LCMS/MS); settings: formation of 13C-glucose-6-phosphate from 13C-glucose by LC MS/MS, human His-hepatic GK, fructose-6-phosphate
T2 sequence (Q14397 1-625): T1 sequence (Q14397 1-625)
Outline: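 Human His-tagged hepatic GK (30 nM working stock, 5×) with GKRP in 50 mM Tris pH 7.5, 4 mM MgCl2, 6% DMSO; compound preincubated 30 min, then GK added for 30 min at room temperature. Acetonitrile-stopped; 13C-glucose-6-phosphate formed from 13C-glucose quantified by LC MS/MS.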

SMILES	IC50 [1] [nM]	EC50 [2] [nM]
CSc1ccccc1C(NS(=O)(=O)c1ccc2c(c1)OCCCO2)c1cc2ccccc2s1 (racemic) [Example 41, N-(1-benzothiophen-2-yl(2-(methylsulfanyl)phenyl)methyl)-3,4-dihydro-2H-1,5-benzodioxepine-7-sulfonamide]	57	27
COc1cccnc1C(NS(=O)(=O)c1ccc2c(c1)OCCCO2)c1cc2ccccc2s1 (racemic) [Example 43, N-(1-benzothiophen-2-yl(3-methoxy-2-pyridinyl)methyl)-3,4-dihydro-2H-1,5-benzodioxepine-7-sulfonamide]	41	47
Cc1c(C(NS(=O)(=O)c2ccc3c(c2)OCCCO3)c2ccccc2)oc2ccccc12 (racemic) [Example 44, N-((3-methyl-1-benzofuran-2-yl)(phenyl)methyl)-3,4-dihydro-2H-1,5-benzodioxepine-7-sulfonamide]	1000	480
Cc1ccccc1C(NS(=O)(=O)c1ccc2c(c1)OCCCO2)c1oc2ccccc2c1C (racemic) [Example 45, N-((3-methyl-1-benzofuran-2-yl)(2-methylphenyl)methyl)-3,4-dihydro-2H-1,5-benzodioxepine-7-sulfonamide]	1700	2000
O=S(=O)(NC(c1ccccc1)c1cc2cccnc2s1)c1ccc2c(c1)OCCCO2 (racemic) [Example 46, N-(phenyl(thieno[2,3-b]pyridin-2-yl)methyl)-3,4-dihydro-2H-1,5-benzodioxepine-7-sulfonamide]	360	220
COc1ccccc1C(NS(=O)(=O)c1ccc2c(c1)OCCCO2)c1cc2cccnc2s1 (racemic) [Example 47, N-((2-methoxyphenyl)(thieno[2,3-b]pyridin-2-yl)methyl)-3,4-dihydro-2H-1,5-benzodioxepine-7-sulfonamide]	27	59
CSc1ccccc1C(NS(=O)(=O)c1ccc2c(c1)OCCCO2)c1cc2cccnc2s1 (racemic) [Example 48, N-((2-(methylsulfanyl)phenyl)(thieno[2,3-b]pyridin-2-yl)methyl)-3,4-dihydro-2H-1,5-benzodioxepine-7-sulfonamide]	10	22
COc1cccnc1C(NS(=O)(=O)c1ccc2c(c1)OCCCO2)c1cc2cccnc2s1 (racemic) [Example 49, N-((3-methoxy-2-pyridinyl)(thieno[2,3-b]pyridin-2-yl)methyl)-3,4-dihydro-2H-1,5-benzodioxepine-7-sulfonamide]	93	150
COc1cnccc1C(NS(=O)(=O)c1ccc2c(c1)OCCCO2)c1cc2cccnc2s1 (racemic) [Example 50, N-((3-methoxy-4-pyridinyl)(thieno[2,3-b]pyridin-2-yl)methyl)-3,4-dihydro-2H-1,5-benzodioxepine-7-sulfonamide]	410	480
COc1ccccc1C(NS(=O)(=O)c1ccc2c(c1)OCCCO2)c1nc2ccccc2s1 (racemic) [Example 51, N-(1,3-benzothiazol-2-yl(2-methoxyphenyl)methyl)-3,4-dihydro-2H-1,5-benzodioxepine-7-sulfonamide]	42	68
CSc1ccccc1C(NS(=O)(=O)c1ccc2c(c1)OCCCO2)c1nc2ccccc2s1 (racemic) [Example 52, N-(1,3-benzothiazol-2-yl(2-(methylsulfanyl)phenyl)methyl)-3,4-dihydro-2H-1,5-benzodioxepine-7-sulfonamide]	6	29
COc1cccnc1C(NS(=O)(=O)c1ccc2c(c1)OCCCO2)c1nc2ccccc2s1 (racemic) [Example 53, N-(1,3-benzothiazol-2-yl(3-methoxy-2-pyridinyl)methyl)-3,4-dihydro-2H-1,5-benzodioxepine-7-sulfonamide]	270	360
O=S(=O)(NC(c1ccccc1)c1nc2ccccc2o1)c1ccc2c(c1)OCCCO2 (racemic) [Example 54, N-(1,3-benzoxazol-2-yl(phenyl)methyl)-3,4-dihydro-2H-1,5-benzo dioxepine-7-sulfonamide]	1100	750
O=S(=O)(NC(c1ccccc1)c1ccc2ccccc2c1)c1ccc2c(c1)OCCCO2 (racemic) [Example 55, N-(2-naphthalenyl(phenyl)methyl)-3,4-dihydro-2H-1,5-benzo dioxepine-7-sulfonamide]	860	240
O=S(=O)(NC(c1ccccc1)c1ccc2ccccc2n1)c1ccc2c(c1)OCCCO2 (racemic) [Example 56, N-(phenyl(2-quinolinyl)methyl)-3,4-dihydro-2H-1,5-benzodioxepine-7-sulfonamide]	1400	720
O=S(=O)(NC(c1ccccc1)c1cc2ccccc2s1)c1ccc2c(c1)OCCCO2 (racemic) [Example 57, N-(1-benzothiophen-2-yl(phenyl)methyl)-3,4-dihydro-2H-1,5-benzodioxepine-7-sulfonamide]	310	110
COc1ccc2sc(C(NS(=O)(=O)c3ccc4c(c3)OCCCO4)c3ccccc3)cc2c1 (racemic) [Example 58, N-((5-methoxy-1-benzothiophen-2-yl)(phenyl)methyl)-3,4-dihydro-2H-1,5-benzodioxepine-7-sulfonamide]	790	200
O=S(=O)(NC(c1ccccc1)c1nc2ccccc2s1)c1ccc2c(c1)OCCCO2 (racemic) [Example 59, N-(1,3-benzothiazol-2-yl(phenyl)methyl)-3,4-dihydro-2H-1,5-benzodioxepine-7-sulfonamide]	630	300
O=S(=O)(NC(c1ccccc1)c1cc2ccncc2s1)c1ccc2c(c1)OCCCO2 (racemic) [Example 60, N-(phenyl(thieno[2,3-c]pyridin-2-yl)methyl)-3,4-dihydro-2H-1,5-benzodioxepine-7-sulfonamide]	360	570
O=S(=O)(NC(c1ccccc1)c1cc2ncccc2s1)c1ccc2c(c1)OCCCO2 (racemic) [Example 61, N-(phenyl(thieno[3,2-b]pyridin-2-yl)methyl)-3,4-dihydro-2H-1,5-benzodioxepine-7-sulfonamide]	2300	2500
O=S(=O)(NC(c1ccccc1)c1cc2cnccc2s1)c1ccc2c(c1)OCCCO2 (racemic) [Example 62, N-(phenyl(thieno[3,2-c]pyridin-2-yl)methyl)-3,4-dihydro-2H-1,5-benzodioxepine-7-sulfonamide]	11000	4600
O=S(=O)(NC(c1ccccc1)c1cc2cc(O)ccc2s1)c1ccc2c(c1)OCCCO2 (racemic) [Example 63, N-((5-hydroxy-1-benzothiophen-2-yl)(phenyl)methyl)-3,4-dihydro-2H-1,5-benzodioxepine-7-sulfonamide]	4200	3200
CSc1ccccc1C(NS(=O)(=O)c1ccc2c(c1)OCCCO2)c1cc2ccncc2s1 (racemic) [Example 64, N-((2-(methylsulfanyl)phenyl)(thieno[2,3-c]pyridin-2-yl)methyl)-3,4-dihydro-2H-1,5-benzodioxepine-7-sulfonamide]	4	20
CSc1ccccc1C(NS(=O)(=O)c1ccc2c(c1)OCCCO2)c1nc2cccnc2s1 (racemic) [Example 65, N-((2-(methylsulfanyl)phenyl)([1,3]thiazolo[5,4-b]pyridin-2-yl)methyl)-3,4-dihydro-2H-1,5-benzodioxepine-7-sulfonamide]	9	37
COc1ccccc1C(NS(=O)(=O)c1ccc2c(c1)OCCCO2)c1cc2ccncc2s1 (racemic) [Example 66, N-((2-methoxyphenyl)(thieno[2,3-c]pyridin-2-yl)methyl)-3,4-dihydro-2H-1,5-benzodioxepine-7-sulfonamide]	72	82
COc1ccccc1C(NS(=O)(=O)c1ccc2c(c1)OCCCO2)c1nc2cccnc2s1 (racemic) [Example 67, N-((2-methoxyphenyl)([1,3]thiazolo[5,4-b]pyridin-2-yl)methyl)-3,4-dihydro-2H-1,5-benzodioxepine-7-sulfonamide]	58	95
O=S(=O)(NC(c1nc2cccnc2s1)c1ccccc1Cl)c1ccc2c(c1)OCCCO2 (racemic) [Example 68, N-((2-chlorophenyl)([1,3]thiazolo[5,4-b]pyridin-2-yl)methyl)-3,4-dihydro-2H-1,5-benzodioxepine-7-sulfonamide]	54	63
